Reference: patent US8134015B2, “Compound inhibiting in vivo phosphorous transport and medicine containing the same” (Kyowa Hakko Kirin Co., Ltd., priority 2003, dated 2012)

biological target: T1, rat NaPi-2b (Rattus norvegicus, UniProt Q9JJ09); assay: Sodium-dependent phosphate uptake of Xenopus oocytes which expressed NaPi-2b (32P); type: cell-based; settings: Xenopus oocytes expressing rat NaPi-2b, 32P radioactive phosphorus; read-out: IC50 (phosphate uptake inhibitory activity)
T1 construct: expressed in transfected cells; host or cells: Xenopus oocytes injected with cRNA
T1 sequence (Q9JJ09 1-695): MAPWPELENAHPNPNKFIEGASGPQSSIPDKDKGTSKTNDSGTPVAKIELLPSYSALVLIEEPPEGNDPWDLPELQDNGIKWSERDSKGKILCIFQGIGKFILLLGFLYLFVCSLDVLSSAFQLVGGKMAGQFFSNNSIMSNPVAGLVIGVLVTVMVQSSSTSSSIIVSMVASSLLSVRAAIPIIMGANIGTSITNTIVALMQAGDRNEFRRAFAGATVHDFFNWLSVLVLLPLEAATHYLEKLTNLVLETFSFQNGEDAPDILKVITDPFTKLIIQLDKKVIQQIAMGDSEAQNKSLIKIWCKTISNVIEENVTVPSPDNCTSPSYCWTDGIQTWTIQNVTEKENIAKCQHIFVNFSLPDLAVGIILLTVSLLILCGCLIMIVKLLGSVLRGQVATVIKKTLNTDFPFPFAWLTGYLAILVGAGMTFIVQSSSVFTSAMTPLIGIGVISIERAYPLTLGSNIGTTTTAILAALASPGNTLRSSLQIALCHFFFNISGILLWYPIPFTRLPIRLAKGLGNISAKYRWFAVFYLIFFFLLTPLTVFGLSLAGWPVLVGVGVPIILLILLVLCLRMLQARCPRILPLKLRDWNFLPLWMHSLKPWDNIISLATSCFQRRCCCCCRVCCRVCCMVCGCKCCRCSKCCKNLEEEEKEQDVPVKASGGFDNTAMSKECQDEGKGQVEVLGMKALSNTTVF
Description: Pharmacological Test Example 1
Experiment of Sodium-Dependent Phosphate Uptake of Xenopus oocytes which Expressed NaPi-2b
Degenerate primers were prepared from sequences of mouse NaPi-2b disclosed in Hilfiker H. et al., Pro Natl Acad Sci USA, 95 (24): 14564-14569, […] and sequences of human and rat NaPi-2a disclosed in Magagnin S. et al., Proc Natl Aca Sci USA, 90 (13): 5979-5983, 1993. RNA was extracted from the rat small intestine using ISOGEN; manufactured by NIPPON GENE CO., LTD (Japan). 400 bp gene fragments were obtained by PCR using, as a template, a cDNA library prepared with a cDNA synthesis kit (manufactured by STRATAGENE (US)). Thereafter, the above rat small intestine cDNA library was screened using the gene fragment as a probe, and the whole gene sequence of rat NaPi-2b was cloned. cRNA was synthesized from the cloned rat NaPi-2b cDNA with a cRNA synthesis kit (manufactured by Ambion (US)). The synthesized cRNA was injected into Xenopus oocytes (obtained from COPACETIC (Japan)) with a liquid microinjector (manufactured by Drummond (US)) and was cultured for 2 days to express rat NaPi-2b. Thereafter, for a group of derivatives, phosphate uptake inhibitory activity were measured using the Xenopus oocytes with ^32P radioactive phosphorus (manufactured by Daiichi Kagaku Inc. (Japan)). […] The inhibitory activity for 300 μM and 100 μM was determined from the same inhibition curve and expressed in percentage inhibition (%) in Table 5.

SMILES | IC50
O=C(Nc1ccc(Br)cc1C(=O)N/N=C/c1ccc(F)cc1)c1cccc(CSc2nc[nH]n2)c1 [Compound 270, N-[4-Bromo-2-(4-fluoro-benzylidene-hydrazinocarbonyl)-phenyl]-3-(1H-[1,2,4]triazol-3-ylsulfanylmethyl)-benzamide] | 5.04 µM
COc1ccc(C(=O)Nc2ccc(Br)cc2C(=O)N/N=C/c2ccc(Cl)c(C(F)(F)F)c2)cc1OC [Compound 87, N-[4-Bromo-2-(4-chloro-3-trifluoromethyl-benzylidene-hydrazinocarbonyl)-phenyl]-3,4-dimethoxy-benzamide] | 0.29 µM
CCN(CC)CCN(C)Cc1cccc(C(=O)Nc2ccc(Cl)cc2C(=O)N/N=C/c2ccc(C)c(C)c2)c1 [Compound 383, N-[4-Chloro-2-(3,4-dimethyl-benzylidene-hydrazinocarbonyl)-phenyl]-3-{[(2-diethylamino-ethyl)-methyl-amino]-methyl}-benzamide] | 1.98 µM
O=C(N/N=C/c1cccc(F)c1)c1cc(Br)ccc1NC(=O)C1CCCCC1 [Compound 509, Cyclohexanecarboxylic acid [4-bromo-2-(3-fluoro-benzylidene-hydrazinocarbonyl)-phenyl]-amide] | 13.6 µM
COc1ccc(C(=O)Nc2ccc(C)cc2C(=O)N/N=C/c2ccc(C)c(C)c2)cc1OC [Compound 150, N-[2-(3,4-Dimethyl-benzylidene-hydrazinocarbonyl)-4-methyl-phenyl]-3,4-dimethoxy-benzamide] | 1.09 µM
O=C(Nc1ccc(Cl)cc1C(=O)N/N=C/c1cccc(F)c1)c1cccc(CSc2nc[nH]n2)c1 [Compound 389, N-[4-Chloro-2-(3-fluoro-benzylidene-hydrazinocarbonyl)-phenyl]-3-(1H-[1,2,4]triazol-3-ylsulfanylmethyl)-benzamide] | 1.09 µM
Cc1ccc(/C=N/NC(=O)c2cc(Br)ccc2NC(=O)c2cccc(CNCCN3CCOCC3)c2)cc1C [Compound 279, N-[4-Bromo-2-(3,4-dimethyl-benzylidene-hydrazinocarbonyl)-phenyl]-3-[(2-morpholin-4-yl-ethylamino)-methyl]-benzamide] | 2.31 µM
CCN(CC)CCN(C)Cc1cccc(C(=O)Nc2ccc(N3CCOCC3)cc2C(=O)N/N=C/c2ccc(Cl)c(C(F)(F)F)c2)c1 [Compound 1075, N-[2-(4-Chloro-3-trifluoromethyl-benzylidene-hydrazinocarbonyl)-4-morpholin-4-yl-phenyl]-3-{[(2-diethylamino-ethyl)-methyl-amino]-methyl}-benzamide] | 1.34 µM
CCN(CC)CCN(Cc1cccc(C(=O)Nc2sc3c(c2C(=O)N/N=C/c2cccc(F)c2)CCCC3)c1)C(C)=O [Compound 655, 3-{[Acetyl-(2-diethylamino-ethyl)-amino]-methyl}-N-[3-(3-fluoro-benzylidene-hydrazinocarbonyl)-4,5,6,7-tetrahydro-benzo[b]-thiophen-2-yl]-benzamide] | 1.58 µM
CC(O)CN(Cc1cccc(C(=O)Nc2ccc(OCC(O)CN3CCOCC3)cc2C(=O)N/N=C/c2ccc(Cl)c(C(F)(F)F)c2)c1)CC(C)O (centres unmarked) [Compound 954, 3-{[Bis-(2-hydroxy-propyl)-amino]-methyl}-N-[2-(4-chloro-3-trifluoromethyl-benzylidene-hydrazinocarbonyl)-4-(2-hydroxy-3-morpholin-4-yl-propoxy)-phenyl]-benzamide] | 60.5 µM
CCN(CCO)Cc1cccc(C(=O)Nc2ccc(Cl)cc2C(=O)N/N=C/c2ccc(O)cc2)c1 [Compound 431, N-[4-Chloro-2-(4-hydroxy-benzylidene-hydrazinocarbonyl)-phenyl]-3-{[ethyl-(2-hydroxy-ethyl)-amino]-methyl}-benzamide] | 5.57 µM
CCN(CC)CCN(C)Cc1cccc(C(=O)Nc2ccc(I)cc2C(=O)N/N=C/c2ccc(O)cc2)c1 [Compound 481, 3-{[(2-Diethylamino-ethyl)-methyl-amino]-methyl}-N-[2-(4-hydroxy-benzylidene-hydrazinocarbonyl)-4-iodo-phenyl]-benzamide] | 12.1 µM
Cc1cc(/C=N/NC(=O)c2ccccc2NC(=O)c2ccncc2)oc1C [Compound 219, N-[2-(4,5-Dimethyl-furan-2-ylmethylene-hydrazinocarbonyl)-phenyl]-isonicotinamide] | 9.07 µM
Cc1ccc(/C=N/NC(=O)c2c(C)csc2NC(=O)c2cccc(CSCCCO)c2)cc1 [Compound 558, 3-(3-Hydroxy-propylsulfanylmethyl)-N-[4-methyl-3-(4-methyl-benzylidene-hydrazinocarbonyl)-thiophen-2-yl]-benzamide] | 1.07 µM
CCN(CC)CCNCc1ccc(C(=O)Nc2ccc(Br)cc2C(=O)N/N=C/c2cccc(C)c2)cc1 [Compound 294, N-[4-Bromo-2-(3-methyl-benzylidene-hydrazinocarbonyl)-phenyl]-4-[(2-diethylamino-ethylamino)-methyl]-benzamide] | 7.8 µM
COc1ccc(C(=O)Nc2ccc(Cl)cc2C(=O)N/N=C/c2cccc(O)c2)cc1OC [Compound 69, N-[4-Chloro-2-(3-hydroxy-benzylidene-hydrazinocarbonyl)-phenyl]-3,4-dimethoxy-benzamide] | 3.93 µM
COc1ccc(C(=O)Nc2ccccc2C(=O)N/N=C/c2cc(C(F)(F)F)ccc2F)cc1OC [Compound 44, N-[2-(2-Fluoro-5-trifluoromethyl-benzylidene-hydrazinocarbonyl)-phenyl]-3,4-dimethoxy-benzamide] | 4.71 µM
CCN(CC)CCNCc1cccc(C(=O)Nc2scc(C)c2C(=O)N/N=C/c2cccc(F)c2)c1 [Compound 584, 3-[(2-Diethylamino-ethylamino)-methyl]-N-[3-(3-fluoro-benzylidene-hydrazinocarbonyl)-4-methyl-thiophen-2-yl]-benzamide] | < 3 µM
CCN(CC)CCN(C)Cc1cccc(C(=O)Nc2ccc(Cl)cc2C(=O)N/N=C/c2cccc(C)c2)c1 [Compound 381, N-[4-Chloro-2-(3-methyl-benzylidene-hydrazinocarbonyl)-phenyl]-3-{[(2-diethylamino-ethyl)-methyl-amino]-methyl}-benzamide] | 1 µM
O=C(Nc1ccc(N2CCCCC2)cc1C(=O)N/N=C/c1cccc(F)c1)c1cccc(CN2CCN(CCO)CC2)c1 [Compound 867, N-[2-(3-Fluoro-benzylidene-hydrazinocarbonyl)-4-piperidin-1-yl-phenyl]-3-[4-(2-hydroxy-ethyl)-piperazin-1-ylmethyl]-benzamide] | 2.24 µM
Cn1cccc1/C=N/NC(=O)c1ccccc1NC(=O)c1ccncc1 [Compound 210, N-[2-(1-Methyl-1H-pyrrol-2-ylmethylene-hydrazinocarbonyl)-phenyl]-isonicotinamide] | 35 µM

same assay, conditions: phosphate uptake, oocytes expressing rat NaPi-2b; 300 μM, determined from inhibition curve

SMILES | inhibition at 300 µM
COc1ccc(C(=O)Nc2ccccc2C(=O)N/N=C/c2ccccc2Cl)cc1OC [Compound 231, N-[2-(2-Chloro-benzylidene-hydrazinocarbonyl)-phenyl]-3,4-dimethoxy-benzamide] | 32.8%
Cc1csc(C(=O)N/N=C/c2cccc(F)c2)c1NC(=O)c1cccc(CSc2nc[nH]n2)c1 [Compound 524, N-[2-(3-Fluoro-benzylidene-hydrazinocarbonyl)-4-methyl-thiophen-3-yl]-3-(1H-[1,2,4]triazol-3-ylsulfanylmethyl)-benzamide] | 42.8%
COc1ccc2cc(/C=N/NC(=O)c3ccccc3NC(=O)c3ccc(OC)c(OC)c3)ccc2c1 [Compound 232, 3,4-Dimethoxy-N-[2-(6-methoxy-naphthalen-2-ylmethylene-hydrazinocarbonyl)-phenyl]-benzamide] | 44.9%
Cc1csc(NC(=O)c2cccc(CSCCS(=O)(=O)O)c2)c1C(=O)N/N=C/c1ccc(F)cc1 [Compound 783, 2-{3-[3-(4-Fluoro-benzylidene-hydrazinocarbonyl)-4-methyl-thiophen-2-ylcarbamoyl]-benzylsulfanyl}-ethanesulfonic acid] | 88.8%
Cc1ccc(CNNC(=O)c2ccccc2NC(=O)c2ccncc2)cc1 [Compound 545, N-{2-[N′-(4-Methyl-benzyl)-hydrazinocarbonyl]-phenyl}-isonicotinamide] | 88.8%
